pIC50: −log10 of the molar value.
Key:
Type in all cases: cell-based
human A1 receptor = molecular target: T1, human A1 receptor (Homo sapiens, UniProt P30542); assay: functional cAMP (HTRF) assay, recombinant CHO cells expressing human A1 receptor, forskolin, agonist CPA
T1 construct: expressed in transfected cells; host or cells: CHO
T1 sequence (P30542 1-326): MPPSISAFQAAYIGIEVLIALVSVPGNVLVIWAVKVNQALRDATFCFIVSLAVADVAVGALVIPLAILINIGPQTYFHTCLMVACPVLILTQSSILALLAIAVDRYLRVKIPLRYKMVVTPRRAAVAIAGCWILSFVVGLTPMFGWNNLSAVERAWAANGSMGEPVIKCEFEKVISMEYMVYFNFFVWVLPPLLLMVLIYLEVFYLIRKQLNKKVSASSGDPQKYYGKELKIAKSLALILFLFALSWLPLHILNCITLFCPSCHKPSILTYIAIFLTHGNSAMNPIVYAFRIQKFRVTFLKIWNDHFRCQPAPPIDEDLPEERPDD
Method: The functional activities of human A2A, A2B, A1 and A3 receptors were determined by quantification of cAMP, being the second messenger for adenosine receptors.
For human A1 and A3 receptors, recombinant CHO cells, expressing either A1 or A3-receptor, were used. As both receptors couple to Gi proteins, the assay protocol was adapted:
Cells were seeded into 384-well plates, forskolin, test compounds and agonists (CPA for A1- and IB-MECA for A3-receptor) were added. After 30 min incubation, HTRF reagents (cAMP dynamic 2, Cis Bio) were added and the cellular cAMP levels were determined using the ENVISION (Perkin Elmer) plate reader. Obtained raw data were normalized against the inhibitor control and the neural control (DMSO) and the normalized data were fitted using GeneData software.

human A3 receptor = molecular target: T2, human A3 receptor (Homo sapiens, UniProt P0DMS8); assay: functional cAMP (HTRF) assay, recombinant CHO cells expressing human A3 receptor, forskolin, agonist IB-MECA
T2 construct: expressed in transfected cells; host or cells: CHO
T2 sequence (P0DMS8 1-318): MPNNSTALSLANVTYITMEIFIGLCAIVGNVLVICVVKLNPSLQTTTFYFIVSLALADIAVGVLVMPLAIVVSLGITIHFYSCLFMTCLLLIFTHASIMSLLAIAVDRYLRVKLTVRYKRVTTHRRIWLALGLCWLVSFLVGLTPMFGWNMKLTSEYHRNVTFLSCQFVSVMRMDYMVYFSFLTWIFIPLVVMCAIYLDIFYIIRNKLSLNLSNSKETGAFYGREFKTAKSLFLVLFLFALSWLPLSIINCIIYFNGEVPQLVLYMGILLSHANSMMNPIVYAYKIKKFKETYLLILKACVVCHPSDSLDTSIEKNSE
Summary of the method: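 Recombinant CHO lines carrying either receptor receive forskolin, compound and the matching agonist, CPA or IB-MECA. After 30 min, HTRF reagents are added and cAMP is quantified. Values are normalized to inhibitor and neutral DMSO controls, then fitted.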

human A2A receptor = molecular target: T3, human A2A receptor (Homo sapiens, UniProt P29274); assay: functional cAMP (HTRF) assay, recombinant HEK293 cells expressing human A2A receptor, agonist NECA
T3 construct: expressed in transfected cells; host or cells: HEK293
T3 sequence (P29274 whole entry): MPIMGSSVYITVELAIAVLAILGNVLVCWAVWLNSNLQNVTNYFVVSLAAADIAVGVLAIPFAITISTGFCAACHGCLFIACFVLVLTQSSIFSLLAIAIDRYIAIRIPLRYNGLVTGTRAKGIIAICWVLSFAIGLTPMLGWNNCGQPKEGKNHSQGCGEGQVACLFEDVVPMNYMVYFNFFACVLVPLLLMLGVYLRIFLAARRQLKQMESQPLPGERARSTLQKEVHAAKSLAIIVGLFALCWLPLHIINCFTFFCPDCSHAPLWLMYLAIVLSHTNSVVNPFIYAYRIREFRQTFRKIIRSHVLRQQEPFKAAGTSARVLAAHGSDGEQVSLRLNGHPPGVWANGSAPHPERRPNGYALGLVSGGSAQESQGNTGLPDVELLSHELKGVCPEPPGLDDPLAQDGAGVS

A2B receptors = molecular target: T4, A2B receptors (Homo sapiens, UniProt P29275); assay: functional cAMP (HTRF) assay, recombinant HEK293 cells expressing human A2B receptor, agonist NECA; set-up: expressed in transfected cells; host or cells: HEK293
T4 sequence (P29275 1-332): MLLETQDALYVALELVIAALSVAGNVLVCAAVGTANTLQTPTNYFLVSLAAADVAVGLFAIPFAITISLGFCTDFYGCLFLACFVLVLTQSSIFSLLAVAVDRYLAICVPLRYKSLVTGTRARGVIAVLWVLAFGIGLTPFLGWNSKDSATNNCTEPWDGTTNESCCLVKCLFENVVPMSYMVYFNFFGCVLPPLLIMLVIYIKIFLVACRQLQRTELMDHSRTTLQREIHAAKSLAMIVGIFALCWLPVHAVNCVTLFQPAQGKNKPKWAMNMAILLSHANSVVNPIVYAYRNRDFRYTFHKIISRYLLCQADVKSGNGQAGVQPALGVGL

| pIC50 (human A1 receptor) | pIC50 (human A3 receptor) | pIC50 (human A2A receptor) | pIC50 (A2B receptors) | SMILES |
| --- | --- | --- | --- | --- |
| < 6.00 | < 6.00 | > 8.00 | > 7.00 | COc1ccc(-c2cnn(C)c2)c2nc(NC(=O)N3CC[C@H](F)C3)[nH]c12 [compound 221, (3S)-3-fluoro-N-[7-methoxy-4-(1-methyl-1H-pyrazol-4-yl)-1H-1,3-benzodiazol-2-yl]pyrrolidine-1-carboxamide] |
| < 6.00 | > 6.00 | > 8.00 | < 6.00 | COc1ccc(-c2ccccc2)c2nc(NC(=O)c3ccc(N4CCOCC4)nc3)[nH]c12 [compound 8, N-(7-Methoxy-4-phenyl-1H-benzoimidazol-2-yl)-6-morpholin-4-yl-nicotinamide] |
| < 6.00 | > 6.00 | > 8.00 | > 7.00 | COc1ccc(C2CCOCC2)c2nc(NC(=O)c3cnn(C)c3)[nH]c12 [compound 224, N-[7-methoxy-4-(oxan-4-yl)-1H-1,3-benzodiazol-2-yl]-1-methyl-1H-pyrazole-4-carboxamide] |
| > 6.00 | > 6.00 | > 8.00 | > 8.00 | COc1ccc(-c2ccccc2)c2[nH]c(NC(=O)c3ccc(C(=O)NCCO)cc3)nc12 [compound 312, N1-(2-hydroxyethyl)-N4-(4-methoxy-7-phenyl-1H-1,3-benzodiazol-2-yl)benzene-1,4-dicarboxamide] |
| < 6.00 | < 6.00 | > 8.00 | < 6.00 | COc1ccc(C2CCOCC2)c2nc(NC(=O)N3CC[C@@]4(CCOC4)C3)[nH]c12 [compound 150, (5R)-N-[7-methoxy-4-(oxan-4-yl)-1H-1,3-benzodiazol-2-yl]-2-oxa-7-azaspiro[4.4]nonane-7-carboxamide] |
| < 6.00 | > 6.00 | > 8.00 | > 6.00 | COc1ccc(-c2ccccc2)c2nc(NC(=O)c3ccc(CN)cc3)[nH]c12 [compound 13, 4-Aminomethyl-N-(7-methoxy-4-phenyl-1H-benzoimidazol-2-yl)-benzamide] |
| < 6.00 | > 6.00 | > 7.00 | > 6.00 | COc1ccc(-c2cnn(C)c2)c2nc(NC(=O)c3ccc4ocnc4c3)[nH]c12 [compound 98, N-[7-methoxy-4-(1-methyl-1H-pyrazol-4-yl)-1H-1,3-benzodiazol-2-yl]-1,3-benzoxazole-5-carboxamide] |
| > 6.00 | > 6.00 | > 7.00 | > 7.00 | COCCn1cc(C(=O)Nc2nc3c(-c4cccc5[nH]ncc45)ccc(OC)c3[nH]2)cn1 [compound 279, N-[4-(1H-indazol-4-yl)-7-methoxy-1H-1,3-benzodiazol-2-yl]-1-(2-methoxyethyl)-1H-pyrazole-4-carboxamide] |
| > 6.00 | > 6.00 | > 8.00 | > 8.00 | COc1ccc(-c2ccccc2)c2nc(NC(=O)c3c[nH]cn3)[nH]c12 [compound 253, N-(7-methoxy-4-phenyl-1H-1,3-benzodiazol-2-yl)-1H-imidazole-4-carboxamide] |
| > 6.00 | > 6.00 | > 8.00 | > 8.00 | COc1ccc(-c2cccc(F)c2)c2nc(NC(=O)c3ccc(C(=O)N(C)C)cc3)[nH]c12 [compound 240, N4-[4-(3-fluorophenyl)-7-methoxy-1H-1,3-benzodiazol-2-yl]-N1,N1-dimethylbenzene-1,4-dicarboxamide] |
| > 6.00 | > 8.00 | > 8.00 | > 6.00 | COc1ccc(-c2cnn(C)c2)c2nc(NC(=O)c3cnc(C)s3)[nH]c12 [compound 165, N-[7-methoxy-4-(1-methyl-1H-pyrazol-4-yl)-1H-1,3-benzodiazol-2-yl]-2-methyl-1,3-thiazole-5-carboxamide] |
| < 6.00 | < 6.00 | > 7.00 | > 7.00 | COc1ccc(-c2cccc3[nH]ncc23)c2nc(NC(=O)N3CCC(C)(O)CC3)[nH]c12 [compound 271, 4-hydroxy-N-[4-(1H-indazol-4-yl)-7-methoxy-1H-1,3-benzodiazol-2-yl]-4-methylpiperidine-1-carboxamide] |
| > 6.00 | < 6.00 | > 8.00 | > 6.00 | COc1ccc(C2CCOCC2)c2nc(NC(=O)N3CCC(O)(Cc4ccccc4)CC3)[nH]c12 [compound 103, 4-benzyl-4-hydroxy-N-[7-methoxy-4-(oxan-4-yl)-1H-1,3-benzodiazol-2-yl]piperidine-1-carboxamide] |
| < 6.00 | < 6.00 | > 8.00 | > 6.00 | COc1ccc(N2CCOCC2)c2nc(NC(=O)c3ccc(Cn4ccnc4)cc3)[nH]c12 [compound 76, 4-[(1H-imidazol-1-yl)methyl]-N-[7-methoxy-4-(morpholin-4-yl)-1H-1,3-benzodiazol-2-yl]benzamide] |
| < 6.00 | > 6.00 | > 8.00 | > 8.00 | COc1ccc(C2=CCOC2)c2nc(NC(=O)c3ccc(C(=O)N(C)C)cc3)[nH]c12 [compound 261, N4-[4-(2,5-dihydrofuran-3-yl)-7-methoxy-1H-1,3-benzodiazol-2-yl]-N1,N1-dimethylbenzene-1,4-dicarboxamide] |
| < 6.00 | < 6.00 | > 8.00 | < 6.00 | COc1ccc(N2CCOCC2)c2nc(NC(=O)c3ccc(O)c(N)c3)[nH]c12 [compound 99, 3-amino-4-hydroxy-N-[7-methoxy-4-(morpholin-4-yl)-1H-1,3-benzodiazol-2-yl]benzamide] |
| > 6.00 | < 6.00 | > 8.00 | > 7.00 | COc1ccc(-c2ccccc2F)c2nc(NC(=O)N3CCC(C)(O)CC3)[nH]c12 [compound 218, N-[4-(2-fluorophenyl)-7-methoxy-1H-1,3-benzodiazol-2-yl]-4-hydroxy-4-methylpiperidine-1-carboxamide] |
| < 6.00 | < 6.00 | > 7.00 | > 6.00 | COc1ccc(-c2cn[nH]c2)c2nc(NC(=O)N3CCC(C)(O)CC3)[nH]c12 [compound 79, 4-hydroxy-N-[7-methoxy-4-(1H-pyrazol-4-yl)-1H-1,3-benzodiazol-2-yl]-4-methylpiperidine-1-carboxamide] |
| > 6.00 | < 6.00 | > 8.00 | > 7.00 | COc1ccc(-c2cccc(F)c2)c2nc(NC(=O)N3CCC(C)(O)CC3)[nH]c12 [compound 217, N-[4-(3-fluorophenyl)-7-methoxy-1H-1,3-benzodiazol-2-yl]-4-hydroxy-4-methylpiperidine-1-carboxamide] |
| < 6.00 | < 6.00 | > 7.00 | > 7.00 | COc1ccc(-c2ccccc2)c2nc(NC(=O)c3ccc(C(=O)N(C)C)cn3)[nH]c12 [compound 284, N2-(7-methoxy-4-phenyl-1H-1,3-benzodiazol-2-yl)-N5,N5-dimethylpyridine-2,5-dicarboxamide] |
| < 6.00 | > 7.00 | > 8.00 | > 6.00 | COc1ccc(-c2ccccc2)c2nc(NC(=O)c3ccnc(N4CCOCC4)c3)[nH]c12 [compound 7, N-(7-Methoxy-4-phenyl-1H-benzoimidazol-2-yl)-2-morpholin-4-yl-isonicotinamide] |
| > 6.00 | > 6.00 | > 7.00 | > 8.00 | COc1ccc(-c2ccccc2)c2nc(NC(=O)c3ccc(N4C(=O)CCC4=O)cc3)[nH]c12 [compound 285, 4-(2,5-dioxopyrrolidin-1-yl)-N-(7-methoxy-4-phenyl-1H-1,3-benzodiazol-2-yl)benzamide] |

From US11453647B2, “Benzimidazole derivatives as adenosine receptor antagonists” (Merck Patent GmbH, priority 2017, dated 2022)
